Assays:
[1] = tested on: RPE cells; assay: Cell cycle analysis by flow cytometry at end of wound healing; type: cell-based; settings: 4 μM FQI1, 12-hour time-point
Protocol: (§1) Cell cycle analysis by flow cytometry: After trypsinization, subsequent steps prior to staining were performed at 4° C. Cells in PBS were transferred dropwise into ethanol (final concentration of 70%) for overnight incubation. Fixed cells were washed with PBS and then incubated in 50 μg/ml propidium iodide and 10 μg/ml RNase A in PBS for 45 minutes at room temperature. After passage through a cell strainer, cell fluorescence was measured using a Becton Dickinson FACSCalibur. Ten thousand events were counted per sample. Histogram plots were generated using FlowJo.
All the samples, including a “0 hour” synchronized and an asynchronous sample, were harvested and prepared for flow cytometry, as described above. The proportion of cells in their respective cell cycle phases was determined by applying the Dean-Jett-Fox model in the FlowJo Cell Cycle analysis tool.

[2] = tested on: FH-B cells; assay: Cell cycle analysis by flow cytometry; type: cell-based, human; settings: asynchronous FH-B cells, 4 μM FQI1, 1 hour
Protocol: as §1

[3] = tested on: FH-B cells; assay: Microtubule sedimentation assay; type: cell-based, human
Protocol: (§2) Cell lysate preparation: For microtubule sedimentation assays, cells were treated as indicated in the figure legends, washed with PBS and incubated in 250 μl of microtubule sedimentation assay lysis buffer (100 mM PIPES pH 6.8, 2 M glycerol, 2 mM EGTA, 5 mM MgCl2, 0.1% Triton X-100) supplemented with 1 μM taxol, protease inhibitor cocktail (1:200, Abcam, ab201111) and phosphatase inhibitor cocktail (1:100, Abcam, ab201115) for 20 minutes at 37° C. Two hundred μl of scraped lysate was centrifuged at 21,000×g for 10 minutes at room temperature. Supernatants were saved as soluble fractions. Pellets were resuspended in 200 μl RIPA buffer (50 mM Tris HCl pH 8.0, 150 mM NaCl, 1% IGEPAL CA630, 0.05% deoxycholic acid) supplemented with 1.05% SDS, protease inhibitor cocktail (1:200) and phosphatase inhibitor cocktail (1:100) and incubated at 100° C. for 15 minutes. Pellet suspensions were centrifuged as before and supernatants were saved as pellet fractions.
(§3) Gel electrophoresis and immunoblotting: Microtubule sedimentation fractions and MLC2 analysis samples were separated by electrophoresis through tris-glycine and tricine polyacrylamide gels, respectively, which were transferred to PVDF membranes. Membranes with microtubule sedimentation fractions and MLC2 analysis samples were blocked in 5% milk in TBST and in 5% BSA in TBST, respectively. After overnight incubation with primary antibody at 4° C., the membranes were washed and incubated with secondary antibody for 1 hour at room temperature. Primary antibodies included anti-α-tubulin (1:2,000, Thermo Fisher Scientific, PA529444), anti-acetylated tubulin (1:1,000, Sigma-Aldrich, T7451), anti-phospho MYL9 (1:200, Thermo Fisher Scientific, PA517727), and anti-β-actin (1:5,000, Sigma-Aldrich, A1978). Secondary antibodies included Goat anti-Rabbit HRP (Thermo Fisher Scientific, 31460; 1:10,000 for anti-α-tubulin; 1:5,000 for anti-phospho MYL9), and Goat anti-Mouse HRP (Thermo Fisher Scientific, 62-6520; 1:5,000 for anti-acetylated tubulin; 1:10,000-1:20,000 for anti-β-actin). Membranes were placed into Pierce™ ECL Western Blotting Substrate (Thermo Fisher Scientific, 32106). Autoradiography film was exposed to each membrane for various times to ensure acquisition of non-saturated exposures. Band intensities were quantified from scanned films by densitometry using ImageJ.

[4] = tested on: RPE cells; assay: Microtubule sedimentation assay; type: cell-based
Protocol: as §2, §3

[5] = tested on: FH-B cells; assay: Cell motility tracking; type: cell-based, human; settings: thymidine block, 4 μM FQI1
Protocol: Cell motility tracking: After overnight seeding in high μ-dishes, cells were synchronized by incubating in 2 mM thymidine for 18-20 hours. Thereafter, cells were treated with 4 μM FQI1 or vehicle (0.01% DMSO) for 1 hour, followed by a 10-min incubation in NucSpot® Live 650 dye (Biotium, 40082) following the manufacturer's instructions. Subsequently, cells were imaged every 2 minutes for 2 hours in an environmental chamber of a Nikon C2 Si microscope at 37° C. and 5% CO2 at 20× magnification. Cells that underwent mitosis during the 2-hour period were excluded from the analysis. Using ImageJ, individual nuclei were monitored using the Manual Tracking tool and the distances between starting and end points were integrated into swarmplots using Python's seaborn library.

[6] = tested on: colorectal cancer tumor; assay: Colorectal cancer tumor size and tumor tissue, FIGS. 22-24; type: in vivo, mouse; settings: 15 mg/kg treatment compared with the other concentration
[7] = tested on: Huh7 cells; assay: Growth inhibition curves in Huh7 cells; type: cell-based; settings: Homo sapiens, Huh-7
[8] = Plasma protein binding (PPB), human; type: in vitro ADME
[9] = tested on: Wnt signaling in HCT-116 cells; assay: Wnt signaling assay (β-catenin-responsive luciferase reporter); type: cell-based; settings: overnight
Protocol: Wnt signaling assay: The CRC cells stably expressing β-catenin-responsive promoter tethered to a luciferase reporter (pBARLS) or a mutant construct (pfuBARLS), as described previously, were seeded in 96-well plates. After 48 h of transfection, luciferase assays was performed using the Dual-Luciferase Kit (Promega) and normalized using protein content determined by the Bradford assay (Bio-Rad) as described previously^26-28.

[10] = 4 μM FQI1 (15- and 30-minute pellets), 1 μM nocodazole or taxol 30 minutes

GI50 [7] [nM] | fraction unbound [8] | Structure (SMILES) | cells with a 4n DNA content [1] [%] | cell cycle phases by cellular DNA profiling [2] | time after addition at which a drop in pelleted tubulin is observed ([3]; 4 μM FQI1) [min] | microtubule stability and α-tubulin acetylation in the microtubule fraction [3, 10] | time after addition at which a drop in pelleted tubulin is observed ([4]; 4 μM FQI1) [min] | microtubule stability and α-tubulin acetylation in the microtubule fraction [4, 10] | cell displacement over a 2-hour period [5] | effectiveness on colorectal cancer tumor size versus time [6] | Wnt activity at baseline ([9]; 0.1 μM up to 20 μM) | concentrations that suppressed Wnt activity induced by lithium chloride [9] [µM]
– | – | CCOc1ccccc1C1CC(=O)Nc2cc3c(cc21)OCO3 (stereo not drawn) [FQI1, 8-(2-ethoxyphenyl)-7,8-dihydro-[1,3]dioxolo[4,5-g]quinolin-6(5H)-one] | ~30 | no apparent shift in cell cycle phases | 1 | increase in the amount of acetylated α-tubulin in the microtubule fraction | 1 | increase in the amount of acetylated α-tubulin in the microtubule fraction | significantly smaller range of motion | – | – | –
22.2 | 0.1 | CCOc1cc(N(C)C)ccc1-c1cc(=O)[nH]c2cc3c(cc12)OCO3 [FQI2-34, 8-(4-(dimethylamino)-2-ethoxyphenyl)-[1,3]dioxolo[4,5-g]quinolin-6(5H)-one] | – | – | – | – | – | – | – | not as effective | inhibited Wnt activity in a monotonically decreasing manner | ≥ 0.1

Source: patent publication US11458132B2, “Quinolin-2(1H)-one inhibitors of Late SV40 Factor” (TRUSTEES OF BOSTON UNIVERSITY, priority 2020, dated 2022)
